Test results from patent US20220347071A1, “USE OF CANNABINOIDS IN THE TREATMENT OF ORAL INFLAMMATION AND PERIODONTAL DISEASE” (priority 2021, published 2022).
Entries after “also recorded” stand apart in the source; their conditions may differ.

How the values were obtained:
IL-8 = IL-8 release by PMA-stimulated NHEK (ELISA); assay type: cell-based, human; settings: for Effect on IL-8 release (in words): PMA-stimulated keratinocytes; for IL-8 release, % Relative inhibition: NHEK, PMA 0.5 μg/ml, 24 h
Experimental: (§1) The effects on normal human epidermal keratinocytes (NHEK) were measured by assessing IL-8 and PGE2 release by PMA-stimulated NHEK using specific ELISA kits.
(§2) Normal human epidermal keratinocytes (NHEK): • Cell type: NHEK • Culture conditions: 37° C., 5% CO2 • Culture medium: Keratinocyte SFM supplemented with Epidermal Growth Factor (EGF) 0.25 ng/ml • Pituitary extract (PE) 25 μg/ml • Gentamycin 25 μg/ml • Assay medium 1: Epilife® medium supplemented with PE 0.2% • Bovine transferrin 5 μg/ml • EGF 0.2 ng/ml • Insulin 5 μg/ml • Gentamycin/Amphotericin • Assay medium 2: Keratinocyte SFM supplemented with Gentamycin 25 μg/ml
(§3) Keratinocytes were seeded in 96-well plates and cultured for 24 hours in culture medium. […] After pre-incubation, the medium was removed and replacedby assay medium 1 containing or not (stimulated control) the compounds or the reference compound and containing the inducer (PMA tested at 0.5 μg/ml). The cells were then incubated for 24 hours. In parallel, a non-stimulated control condition was performed.
(§4) All experimental conditions were performed in n=3. At the end of incubation, the culture supernatants were collected for IL-8 and PGE2 quantifications.
(§5) IL-8 and PGE2 released in the culture supernatants were measured using specific ELISA kits according to the supplier's instructions.

PGE2 = PGE2 release by PMA-stimulated NHEK (ELISA); assay type: cell-based, human; settings: for PGE2 release, % of the control: highest tested concentration; for PGE2 release, % of the control / Effect on PGE2 release (in words) / PGE2 release, % of relative inhibition: PMA-stimulated keratinocytes; for PGE2 release, % of relative inhibition: concentration not given; for PGE2 release, % Relative inhibition: NHEK, PMA 0.5 μg/ml, 24 h
Experimental: as §1, §2, §3, §4, §5

C=C(C)[C@@H]1CCC(C)=C[C@H]1c1c(O)cc(CCCCC)cc1O [CBD, cannabidiol, reference compound]
Effect on IL-8 release (in words) (IL-8; tested at 0.3 μM): overstimulated IL-8 release
PGE2 release, % of the control (PGE2): 185%

C=C(C)[C@@H]1CCC(C)=C[C@H]1c1c(O)cc(CCCCC)c(C(=O)O)c1O [CBDA, cannabidiolic acid, reference compound]
Effect on PGE2 release (in words) (PGE2): did not modulate

CCCCCc1cc(O)c(C/C=C(\C)CCC=C(C)C)c(O)c1 [CBG, cannabigerol]
Effect on IL-8 release (in words) (IL-8; concentration not given): significantly inhibited
Effect on IL-8 release (in words) (IL-8; tested at 3 (unit not given)): strongly inhibited
Effect on PGE2 release (in words) (PGE2): significant at all tested concentrations; also recorded: significantly inhibited
PGE2 release, % of relative inhibition (PGE2): about 160%

CCCCCc1cc(O)c(C/C=C(\C)CCC=C(C)C)c(O)c1C(=O)O [CBGA, cannabigerolic acid, reference compound]
PGE2 release, % of the control (PGE2): 182%

CCCc1cc(O)c(C/C=C(\C)CCC=C(C)C)c(O)c1C(=O)O [CBGVA, cannabigerovarinic acid]
IL-8 release, % Relative inhibition (IL-8; 0.1 μM): 2%
IL-8 release, % Relative inhibition (IL-8; 0.3 μM): 11%
IL-8 release, % Relative inhibition (IL-8; 1 μM): 9%
PGE2 release, % Relative inhibition (PGE2; 0.1 μM): 19%
PGE2 release, % Relative inhibition (PGE2; 0.3 μM): 65%
PGE2 release, % Relative inhibition (PGE2; 1 μM): >162%
Effect on PGE2 release (in words) (PGE2): significant effect only when tested at the highest concentration; also recorded: inhibited
PGE2 release, % of relative inhibition (PGE2): about 160%

COc1ccc2c(c1)c(CC(=O)O)c(C)n2C(=O)c1ccc(Cl)cc1 [Indomethacin, indomethacin, reference compound]
PGE2 release, % Relative inhibition (PGE2; 1 μM): >169%

O=C1O[C@H]([C@@H](O)CO)C(O)=C1O [L-Ascorbic acid, reference compound]
Effect on PGE2 release (in words) (PGE2): overall the same effect at all tested concentrations; also recorded: significantly limited
PGE2 release, % of relative inhibition (PGE2): ~145%
